# According to patent publication US12662451B2, “Chemical compounds and uses thereof” (GLAXOSMITHKLINE INTELLECTUAL PROPERTY (NO.4) LIMITED, priority 2023, dated 2026):
# Tested on: SW48 human colorectal cancer cells (MSI-H cancer cells)
# Test: SW48 cell viability, CellTiter-Glo, 120 hours (Example B)
# Conditions: Homo sapiens, SW48, 120 h, read-out: SW48 pCC50, SW48 cell viability, 120 hours incubation (converted); Table 2
row,Structure (SMILES),CC50
1,"Cc1nc2cc(S(=O)(=O)N(C)c3ccc([C@H]4CN(CC(F)(F)F)C[C@@H](C(=O)Nc5ccc(C(F)(F)F)cc5F)[C@@H]4C(=O)O)cc3)ccc2n1C (relative stereo) [Example 358, rel-(3R,4S,5R)-3-((2-fluoro-4-(trifluoromethyl)phenyl)carbamoyl)-1-(2,2,2-trifluoroethyl)-5-(4-((N,1,2-trimethyl-1H-benzo[d]imidazole)-5-sulfonamido)phenyl)piperidine-4-carboxylic acid]",0.631 µM
2,"Cc1nc2cc(S(=O)(=O)N(C)c3ccc([C@H]4C[C@H](N5CCC[C@H](F)C5)C[C@@H](C(=O)Nc5ccc(C(F)(F)F)cc5F)[C@@H]4C(=O)O)cc3)ccc2n1C (stereo in doubt) [Example 351, rel-(1R*,2R*,4S*,6S*)-2-((2-fluoro-4-(trifluoromethyl)phenyl)carbamoyl)-4-((S)-3-fluoropiperidin-1-yl)-6-(4-((N,1,2-trimethyl-1H-benzo[d]imidazole)-5-sulfonamido)phenyl)cyclohexane-1-carboxylic acid]",10 µM
3,"Cc1nc2cc(S(=O)(=O)N(C)c3ccc([C@@H]4C[C@@H]5COC[C@@H]5[C@H](C(=O)Nc5ccc(C(F)(F)F)cc5F)[C@H]4C(=O)O)cc3)ccc2n1C (stereo in doubt) [Example 391, rel-(3aR,4R,5R,6S,7aR)-4-((2-fluoro-4-(trifluoromethyl)phenyl)carbamoyl)-6-(4-((N,1,2-trimethyl-1H-benzo[d]imidazole)-5-sulfonamido)phenyl)octahydroisobenzofuran-5-carboxylic acid]",20 µM

# Biological target: T1, recombinant full-length WRN protein (1-1432) (Homo sapiens, UniProt Q14191)
# T1 construct: recombinant full-length WRN protein (1-1432)
# T1 sequence (Q14191 whole entry): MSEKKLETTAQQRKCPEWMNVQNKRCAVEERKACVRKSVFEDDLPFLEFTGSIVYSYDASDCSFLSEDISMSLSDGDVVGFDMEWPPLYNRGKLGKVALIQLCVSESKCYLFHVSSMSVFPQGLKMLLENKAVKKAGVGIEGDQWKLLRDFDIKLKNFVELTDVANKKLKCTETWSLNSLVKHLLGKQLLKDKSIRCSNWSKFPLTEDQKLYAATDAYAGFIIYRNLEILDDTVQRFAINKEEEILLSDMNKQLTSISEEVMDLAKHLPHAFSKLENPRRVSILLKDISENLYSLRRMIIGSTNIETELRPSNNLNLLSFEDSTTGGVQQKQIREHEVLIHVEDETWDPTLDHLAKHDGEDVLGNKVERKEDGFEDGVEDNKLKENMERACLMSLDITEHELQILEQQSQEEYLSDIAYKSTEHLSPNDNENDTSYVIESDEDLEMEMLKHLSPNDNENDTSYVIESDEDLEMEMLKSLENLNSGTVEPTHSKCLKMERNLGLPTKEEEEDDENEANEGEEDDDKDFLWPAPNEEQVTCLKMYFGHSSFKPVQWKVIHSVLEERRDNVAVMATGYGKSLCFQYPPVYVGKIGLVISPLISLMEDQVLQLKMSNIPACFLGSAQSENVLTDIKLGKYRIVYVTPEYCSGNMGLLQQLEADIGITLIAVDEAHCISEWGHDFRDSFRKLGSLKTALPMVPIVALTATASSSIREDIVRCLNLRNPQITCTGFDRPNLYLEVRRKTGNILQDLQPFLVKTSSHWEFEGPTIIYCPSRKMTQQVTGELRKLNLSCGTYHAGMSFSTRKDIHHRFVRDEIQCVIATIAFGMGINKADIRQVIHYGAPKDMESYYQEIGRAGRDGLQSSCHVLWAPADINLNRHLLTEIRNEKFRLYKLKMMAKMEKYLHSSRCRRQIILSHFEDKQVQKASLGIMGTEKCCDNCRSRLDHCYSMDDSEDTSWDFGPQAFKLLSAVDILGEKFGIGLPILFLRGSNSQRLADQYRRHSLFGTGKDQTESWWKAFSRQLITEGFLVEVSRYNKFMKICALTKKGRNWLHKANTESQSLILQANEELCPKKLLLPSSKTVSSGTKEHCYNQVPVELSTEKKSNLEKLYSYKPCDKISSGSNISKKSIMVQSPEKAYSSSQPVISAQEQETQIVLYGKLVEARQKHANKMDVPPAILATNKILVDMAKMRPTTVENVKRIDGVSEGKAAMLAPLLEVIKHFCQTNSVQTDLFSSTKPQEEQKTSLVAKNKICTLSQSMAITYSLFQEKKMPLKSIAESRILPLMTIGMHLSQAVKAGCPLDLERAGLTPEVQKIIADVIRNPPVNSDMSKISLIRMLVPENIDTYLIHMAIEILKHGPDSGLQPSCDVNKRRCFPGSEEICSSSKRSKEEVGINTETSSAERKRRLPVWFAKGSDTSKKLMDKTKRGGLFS
# Test: WRN unwinding activity, fluorogenic 384-well assay (Example A)
# Type: biochemical
# Conditions: WRN unwinding activity, 4 hr; Table 2; read-out: 4 hr UNW pIC50 (converted)
# Description: Functional WRN unwinding activity can be measured using a fluorogenic plate based 384 well assay configured to measure the separation of labeled double stranded DNA substrate. Compounds were dosed out in neat DMSO with a 1:3 serial dilution scheme. 100 nL of compound was stamped into Greiner low volume black assay plates (Greiner Cat #784076) using the Echo Acoustic Dispenser to generate assay ready plates. All solutions were prepared in assay buffer (25 mM TRIS (pH8.0), 5 mM NaCl, 2 mM MgCl2, 1 mM DTT, 0.05% BSA) for this 10 μL low volume reaction. To prepare the solutions, a 2×WRN Enzyme cocktail was made containing 200 pM of recombinant full-length WRN protein (1-1432). A 2× Substrate cocktail was made to consist of both 200 μM ATP (any ultrapure ATP sample) and 12 nM of the fluorescent quenched labeled double stranded DNA oligomer (IDT Custom synthesis; 5′-5IABkFQ (SEQ ID NO. 1)/GCACTGGCCGTCGTTTTACGGTCGTGACT-3′ (SEQ ID NO. 2): 5′-TTTTTTACTTAACGACGGCCAGTGC (SEQ ID NO. 3)/36-TAMTSP/-3′ (SEQ ID NO. 4)). To start the reaction, 5 μL of assay buffer was added to a single column to serve as the low control. Following this, 5 μL of 2×WRN Enzyme was added in all wells except the buffer low control wells. The reaction plate was covered and incubated at ambient temperature for 4 hours to allow for time dependent inhibition if it existed. After 4 hours, the addition of 5 μL of 2×-ATP/DNA substrate cocktail was added across all wells of the assay plate. This initiated the reaction, as the plate was incubated at ambient temperature for 60 minutes for the unwinding reaction to occur. A 10 mM EDTA solution was prepared and added at 5 μL across the entire plate after 60 minutes to quench the samples for an endpoint measurement. Fluorescent intensity was measured using excitation and emission wavelengths of 525 nm and 598 nm, respectively. High florescent intensity (DMSO with buffer) represents full inhibition of unwinding activity and low florescent intensity (DMSO with enzyme) represents no inhibition of unwinding activity. The potency of the compounds was determined using a four-parameter inhibition model to generate pIC50, Hill Slope, maximum inhibition (see Table 2).
row,IC50,Structure (SMILES)
1,0.794 µM,"O=C(O)[C@@H]1[C@@H](c2ccc([C@H]3CCCOCC3)cc2)CCC[C@H]1C(=O)Nc1ccc(C(F)(F)F)cc1F (racemic) [Example 59, 1:1 Mixture of (1R,2R,6S)-2-((2-fluoro-4-(trifluoromethyl)phenyl)carbamoyl)-6-(4-((S)-oxepan-4-yl)phenyl)cyclohexane-1-carboxylic acid AND (1R,2R,6S)-2-((2-fluoro-4-(trifluoromethyl)phenyl)carbamoyl)-6-(4-((R)-oxepan-4-yl)phenyl)cyclohexane-1-carboxylic acid]"
2,0.0501 µM,"O=C(O)[C@@H]1[C@@H](c2ccc([C@H]3CC34CCOCC4)cc2)CCC[C@H]1C(=O)Nc1ccc(C(F)(F)F)cc1F (racemic) [Example 65, 1:1 Mixture of (1R,2S,6R)-2-(4-((S)-6-oxaspiro[2.5]octan-1-yl)phenyl)-6-((2-fluoro-4-(trifluoromethyl)phenyl)carbamoyl)cyclohexane-1-carboxylic acid AND (1R,2S,6R)-2-(4-((R)-6-oxaspiro[2.5]octan-1-yl)phenyl)-6-((2-fluoro-4-(trifluoromethyl)phenyl)carbamoyl)cyclohexane-1-carboxylic acid]"
3,2.51 µM,"C=CC1COC[C@@H]1c1ccc([C@H]2CCC[C@@H](C(=O)Nc3ccc(C(F)(F)F)cc3F)[C@@H]2C(=O)O)cc1 (mixture of isomers) [Example 66, 1:1 Mixture of (1R,2R,6S)-2-((2-fluoro-4-(trifluoromethyl)phenyl)carbamoyl)-6-(4-((3S)-4-vinyltetrahydrofuran-3-yl)phenyl)cyclohexane-1-carboxylic acid AND (1R,2R,6S)-2-((2-fluoro-4-(trifluoromethyl)phenyl)carbamoyl)-6-(4-((3R)-4-vinyltetrahydrofuran-3-yl)phenyl)cyclohexane-1-carboxylic acid]"
4,2 µM,"COC(=O)[C@H]1C[C@H]1c1ccc([C@H]2CCC[C@@H](C(=O)Nc3ccc(C(F)(F)F)cc3F)[C@@H]2C(=O)O)cc1 (racemic) [Example 67, 1:1 Mixture of (1R,2R,6S)-2-((2-fluoro-4-(trifluoromethyl)phenyl)carbamoyl)-6-(4-((1R,2S)-2-(methoxycarbonyl)cyclopropyl)phenyl)cyclohexane-1-carboxylic acid AND (1R,2R,6S)-2-((2-fluoro-4-(trifluoromethyl)phenyl)carbamoyl)-6-(4-((1S,2S)-2-(methoxycarbonyl)cyclopropyl)phenyl)cyclohexane-1-carboxylic acid]"
5,15.8 µM,O=C(O)[C@@H]1[C@@H](c2ccc([C@H]3[C@@H]4CNCC[C@@H]43)cc2)CCC[C@H]1C(=O)Nc1ccc(C(F)(F)F)cc1F (racemic) [Example 70]
6,0.00316 µM,"Cc1nc2cc(S(=O)(=O)N(C)c3ccc([C@H]4CCC[C@H](C(=O)Nc5ccc(C(C)C)cc5)[C@@H]4C(=O)O)cc3)ccc2n1C (racemic) [Example 72, rac-(1R,2S,6S)-2-((4-isopropylphenyl)carbamoyl)-6-(4-((N,1,2-trimethyl-1H-benzo[d]imidazole)-5-sulfonamido)phenyl)cyclohexane-1-carboxylic acid]"
7,5.01 µM,Cc1nc2cc(S(=O)(=O)N(C)c3ccc([C@H]4CCC[C@@H](C(=O)NC56CC(C)(C5)C6)[C@@H]4C(=O)O)cc3)ccc2n1C (racemic) [Example 178]
8,0.0126 µM,"Cc1nc2cc(S(=O)(=O)N(C)c3ccc([C@H]4CCC[C@@H](CNc5ccc(C(C)C)cc5)[C@@H]4C(=O)O)cc3)ccc2n1C (racemic) [Example 200, rac-(1R,2R,6S)-2-(((4-isopropylphenyl)amino)methyl)-6-(4-((N,1,2-trimethyl-1H-benzo[d]imidazole)-5-sulfonamido)phenyl)cyclohexane-1-carboxylic acid]"
9,25.1 µM,"Cc1nc2cc(S(=O)(=O)N(C)c3ccc([C@H]4CCC[C@@H](CN5CC6(C5)CC(F)(F)C6)[C@@H]4C(=O)O)cc3)ccc2n1C (racemic) [Example 201, rac-(1R,2R,6S)-2-((6,6-difluoro-2-azaspiro[3.3]heptan-2-yl)methyl)-6-(4-((N,1,2-trimethyl-1H-benzo[d]imidazole)-5-sulfonamido)phenyl)cyclohexane-1-carboxylic acid]"
10,100 µM,"Cc1nc2cc(S(=O)(=O)N(C)c3ccc([C@H]4CCC[C@@H](CN(C)C5CCOCC5)[C@@H]4C(=O)O)cc3)ccc2n1C (racemic) [Example 202, rac-(1R,2R,6S)-2-((methyl(tetrahydro-2H-pyran-4-yl)amino)methyl)-6-(4-((N,1,2-trimethyl-1H-benzo[d]imidazole)-5-sulfonamido)phenyl)cyclohexane-1-carboxylic acid]"
11,0.501 µM,"O=C(O)[C@@H]1[C@@H](c2ccc(N3CCCCC3)cc2)CCC[C@H]1C(=O)Nc1ccc(C(F)(F)F)cc1F (racemic) [Example 222, rac-(1R,2R,6S)-2-((2-fluoro-4-(trifluoromethyl)phenyl)carbamoyl)-6-(4-(piperidin-1-yl)phenyl)cyclohexane-1-carboxylic acid]"
12,6.31 µM,"O=C(O)[C@@H]1[C@@H](c2ccc(N3CCC4(CC3)CO4)cc2)CCC[C@H]1C(=O)Nc1ccc(C(F)(F)F)cc1F (racemic) [Example 228, rac-(1R,2S,6R)-2-(4-(1-oxa-6-azaspiro[2.5]octan-6-yl)phenyl)-6-((2-fluoro-4-(trifluoromethyl)phenyl)carbamoyl)cyclohexane-1-carboxylic acid]"
13,1 µM,"COCCOc1cc([C@H]2CCC[C@@H](C(=O)Nc3ccc(C(F)(F)F)cc3F)[C@@H]2C(=O)O)ccc1C(F)(F)F (racemic) [Example 234, rac-(1R,2R,6S)-2-((2-fluoro-4-(trifluoromethyl)phenyl)carbamoyl)-6-(3-(2-methoxyethoxy)-4-(trifluoromethyl)phenyl)cyclohexane-1-carboxylic acid]"
14,0.2 µM,"COc1cc(C(F)(F)F)ccc1[C@H]1CCC[C@@H](C(=O)Nc2ccc(C(F)(F)F)cc2F)[C@@H]1C(=O)O (racemic) [Example 237, rac-(1R,2R,6S)-2-((2-fluoro-4-(trifluoromethyl)phenyl)carbamoyl)-6-(2-methoxy-4-(trifluoromethyl)phenyl)cyclohexane-1-carboxylic acid]"
15,0.251 µM,"CC(C)(O)C#Cc1cc([C@H]2CCC[C@@H](C(=O)Nc3ccc(C(F)(F)F)cc3F)[C@@H]2C(=O)O)ccc1C(F)(F)F (racemic) [Example 239, rac-(1R,2R,6S)-2-((2-fluoro-4-(trifluoromethyl)phenyl)carbamoyl)-6-(3-(3-hydroxy-3-methylbut-1-yn-1-yl)-4-(trifluoromethyl)phenyl)cyclohexane-1-carboxylic acid]"
